Calls of active or inactive are those of the source. No rule for the calls is given here.

Mutagenic call data for 4 compounds are collected here from PubChem BioAssay AID1259407 (Chemical Carcinogenesis Research Information System (CCRIS), 2018).

In this series the test system is CCRIS mutagenicity, Ames/micronucleus/aberration tests. The series is described as follows: CCRIS mutagenicity studies.
Where [1] appears, read: Test System: AMES SALMONELLA TYPHIMURIUM, Strain/Indicator: TA98, Metabolic Activation: NONE, Method: PREINCUBATION
The mark [2] stands for this setting: Test System: AMES SALMONELLA TYPHIMURIUM, Strain/Indicator: TA100, Metabolic Activation: NONE, Method: PREINCUBATION
Setting [3] is: Test System: AMES SALMONELLA TYPHIMURIUM, Strain/Indicator: TA1535, Metabolic Activation: NONE, Method: PREINCUBATION
[4] abbreviates: Test System: AMES SALMONELLA TYPHIMURIUM, Strain/Indicator: TA98, Metabolic Activation: NONE, Method: STANDARD PLATE.

As for `CCc1ccccc1O`, the mutagenic call (Test System: AMES SALMONELLA TYPHIMURIUM, Strain/Indicator: TA97, Metabolic Activation: HAMSTER, LIVER, S-9, AROCLOR 1254 (10 OR 30%), Method: PREINCUBATION) was “inactive; negative”; the mutagenic call (Test System: AMES SALMONELLA TYPHIMURIUM, Strain/Indicator: TA97, Metabolic Activation: NONE, Method: PREINCUBATION) is “inactive; negative”; the mutagenic call (Test System: AMES SALMONELLA TYPHIMURIUM, Strain/Indicator: TA97, Metabolic Activation: RAT, LIVER, S-9, AROCLOR 1254 (10 OR 30%), Method: PREINCUBATION) was “inactive; negative”; the mutagenic call (Test System: AMES SALMONELLA TYPHIMURIUM, Strain/Indicator: TA98, Metabolic Activation: HAMSTER, LIVER, S-9, AROCLOR 1254 (10 OR 30%), Method: PREINCUBATION) was “inactive; negative”; the mutagenic call under setting [1] is “inactive; negative”; the mutagenic call (Test System: AMES SALMONELLA TYPHIMURIUM, Strain/Indicator: TA98, Metabolic Activation: RAT, LIVER, S-9, AROCLOR 1254 (10 OR 30%), Method: PREINCUBATION) is “inactive; negative”. Besides, the mutagenic call reads like this: (Test System: AMES SALMONELLA TYPHIMURIUM, Strain/Indicator: TA100, Metabolic Activation: HAMSTER, LIVER, S-9, AROCLOR 1254 (10 OR 30%), Method: PREINCUBATION) “inactive; negative”; under setting [2], “inactive; negative”; (Test System: AMES SALMONELLA TYPHIMURIUM, Strain/Indicator: TA100, Metabolic Activation: RAT, LIVER, S-9, AROCLOR 1254 (10 OR 30%), Method: PREINCUBATION) “inactive; negative”; (Test System: AMES SALMONELLA TYPHIMURIUM, Strain/Indicator: TA1535, Metabolic Activation: HAMSTER, LIVER, S-9, AROCLOR 1254 (10 OR 30%), Method: PREINCUBATION) “inactive; negative”; under setting [3], “inactive; negative”; (Test System: AMES SALMONELLA TYPHIMURIUM, Strain/Indicator: TA1535, Metabolic Activation: RAT, LIVER, S-9, AROCLOR 1254 (10 OR 30%), Method: PREINCUBATION) “inactive; negative”.

With `O=[N+]([O-])c1cc2c3c(c1)CCc1cc([N+](=O)[O-])cc(c1-3)CC2`, the mutagenic call is “active; positive” (Test System: AMES SALMONELLA TYPHIMURIUM, Strain/Indicator: TA98(1,8-DNP6), Metabolic Activation: NONE, Method: STANDARD PLATE); “active; positive” (Test System: AMES SALMONELLA TYPHIMURIUM, Strain/Indicator: TA98(NR), Metabolic Activation: NONE, Method: STANDARD PLATE); “active; positive” under setting [4].

Regarding `CN(C)C(=O)Nc1ccc(Cl)cc1`, the mutagenic call is “inactive; negative; precipitation occurred at all doses” (End Point: IN VITRO CHROMOSOMAL ABERRATIONS, Test System: CHINESE HAMSTER OVARY CELLS, Metabolic Activation: NONE); “active; positive; precipitation occurred at all doses” (End Point: IN VITRO CHROMOSOMAL ABERRATIONS, Test System: CHINESE HAMSTER OVARY CELLS, Metabolic Activation: RAT, LIVER, S-9, AROCLOR 1254); “inactive; negative” (Test System: AMES SALMONELLA TYPHIMURIUM, Strain/Indicator: TA98, Metabolic Activation: HAMSTER, LIVER, S-9, AROCLOR 1254, Method: PREINCUBATION); “inactive; negative” under setting [1]; “inactive; negative” (Test System: AMES SALMONELLA TYPHIMURIUM, Strain/Indicator: TA98, Metabolic Activation: RAT, LIVER, S-9, AROCLOR 1254, Method: PREINCUBATION); “inactive; negative” (Test System: AMES SALMONELLA TYPHIMURIUM, Strain/Indicator: TA100, Metabolic Activation: HAMSTER, LIVER, S-9, AROCLOR 1254, Method: PREINCUBATION). Moreover, the mutagenic call is, setting by setting: under setting [2], “inactive; negative”; (Test System: AMES SALMONELLA TYPHIMURIUM, Strain/Indicator: TA100, Metabolic Activation: RAT, LIVER, S-9, AROCLOR 1254, Method: PREINCUBATION) “inactive; negative”; (Test System: AMES SALMONELLA TYPHIMURIUM, Strain/Indicator: TA1535, Metabolic Activation: HAMSTER, LIVER, S-9, AROCLOR 1254, Method: PREINCUBATION) “inactive; negative”; under setting [3], “inactive; negative”; (Test System: AMES SALMONELLA TYPHIMURIUM, Strain/Indicator: TA1535, Metabolic Activation: RAT, LIVER, S-9, AROCLOR 1254, Method: PREINCUBATION) “inactive; negative”; (Test System: AMES SALMONELLA TYPHIMURIUM, Strain/Indicator: TA1537, Metabolic Activation: HAMSTER, LIVER, S-9, AROCLOR 1254, Method: PREINCUBATION) “inactive; negative”. In addition, the mutagenic call by setting is: (Test System: AMES SALMONELLA TYPHIMURIUM, Strain/Indicator: TA1537, Metabolic Activation: NONE, Method: PREINCUBATION) “inactive; negative”; (Test System: AMES SALMONELLA TYPHIMURIUM, Strain/Indicator: TA1537, Metabolic Activation: RAT, LIVER, S-9, AROCLOR 1254, Method: PREINCUBATION) “inactive; negative”.

For the compound `CC(O)CN(C)c1ccc(NN)nn1` (stereo not given), the mutagenic call was “active; positive” (Test System: AMES SALMONELLA TYPHIMURIUM, Strain/Indicator: TA97, Metabolic Activation: NONE, Method: STANDARD PLATE); “active; positive” (Test System: AMES SALMONELLA TYPHIMURIUM, Strain/Indicator: TA97, Metabolic Activation: RAT, LIVER, S-9, AROCLOR 1254, Method: STANDARD PLATE); “active; positive” under setting [4]; “active; positive” (Test System: AMES SALMONELLA TYPHIMURIUM, Strain/Indicator: TA98, Metabolic Activation: RAT, LIVER, S-9, AROCLOR 1254, Method: STANDARD PLATE); “inactive; negative” (Test System: AMES SALMONELLA TYPHIMURIUM, Strain/Indicator: TA100, Metabolic Activation: NONE, Method: STANDARD PLATE); “inactive; negative” (Test System: AMES SALMONELLA TYPHIMURIUM, Strain/Indicator: TA100, Metabolic Activation: RAT, LIVER, S-9, AROCLOR 1254, Method: STANDARD PLATE). Also, the mutagenic call is, setting by setting: (Test System: AMES SALMONELLA TYPHIMURIUM, Strain/Indicator: TA102, Metabolic Activation: NONE, Method: STANDARD PLATE) “active; positive”; (Test System: AMES SALMONELLA TYPHIMURIUM, Strain/Indicator: TA102, Metabolic Activation: RAT, LIVER, S-9, AROCLOR 1254, Method: STANDARD PLATE) “inactive; negative”; (Test System: AMES SALMONELLA TYPHIMURIUM, Strain/Indicator: TA1535, Metabolic Activation: NONE, Method: STANDARD PLATE) “inactive; negative”; (Test System: AMES SALMONELLA TYPHIMURIUM, Strain/Indicator: TA1535, Metabolic Activation: RAT, LIVER, S-9, AROCLOR 1254, Method: STANDARD PLATE) “inactive; negative”; (Test System: AMES SALMONELLA TYPHIMURIUM, Strain/Indicator: TA1537, Metabolic Activation: NONE, Method: STANDARD PLATE) “active; positive”; (Test System: AMES SALMONELLA TYPHIMURIUM, Strain/Indicator: TA1537, Metabolic Activation: RAT, LIVER, S-9, AROCLOR 1254, Method: STANDARD PLATE) “active; positive”. In addition, the mutagenic call runs as follows: (Test System: AMES SALMONELLA TYPHIMURIUM, Strain/Indicator: TA1538, Metabolic Activation: NONE, Method: STANDARD PLATE) “active; positive”; (Test System: AMES SALMONELLA TYPHIMURIUM, Strain/Indicator: TA1538, Metabolic Activation: RAT, LIVER, S-9, AROCLOR 1254, Method: STANDARD PLATE) “active; positive”; (Test System: E. COLI, Strain/Indicator: WP2, Metabolic Activation: RAT, LIVER, S-9, AROCLOR 1254, Method: STANDARD PLATE) “inactive; negative”; (Test System: E. COLI, Strain/Indicator: WP2 UVRA, Metabolic Activation: RAT, LIVER, S-9, AROCLOR 1254, Method: STANDARD PLATE) “active; positive”.
